# Columns and labels:
# SIK2 [1] = target: T1, SIK2 (Homo sapiens, UniProt Q9H0K1); assay: SIK2 Enzymatic Assay Version 1 (ADP Glo); type: biochemical; settings: enzyme 0.6 nM, 160 μM ATP and 140 μM HDAC5tide (each 2× final concentration); 30 minutes pre-incubation, 4 hours; ADPGlo luminescence; read-out: SIK2 ADP Glo IC50 (μM) (Test Example 1)
# Description: All steps were performed at room temperature. Compounds were pre-plated onto an assay plate using an Echo acoustic dispenser (Labcyte, E550 or E555) at 20 nL per well. Enzyme prepared in Assay Buffer at 0.6 nM (2× final concentration) was added at 2 μL per well using the Multidrop Combi (Thermo Fisher—used for all additions in this assay) to the assay plate, spun for 1 min at 800-850 rpm (Allegra 6KR Beckman Coulter centrifuge), and incubated with compound for 30 minutes.
# One column of wells was dedicated to a no-peptide negative control (containing only ATP). ADPGlo Reagent (prepared and aliquoted as per manufacturer instructions) was then added at 2 μL per well, spun and incubated for 40 min. ADPGlo Detection (prepared and aliquoted as per manufacturer instructions) was added at 2 μL per well to the assay plate, which was spun and incubated for at least 30 min. The plate was then read on the Pherastar (BMG Labtech) using a luminescence read. Gain was set by the 0.1 mM concentration of ADP wells in the ADP/ATP standard curve plate generated as per manufacturer instructions.
# SIK2 [2] = target: T1, SIK2; assay: SIK2 Enzymatic Assay High Version 2 (High ATP); type: biochemical
# In short: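 At room temperature, enzyme (6 nM, 2× final) was preincubated with compound for 30 min, then 6 mM ATP and 400 μM HDAC5tide (both 2× final) were added for 2 h. ADP formed was measured by ADP-Glo Max (2 h reagent, 1 h detection) using luminescence.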
# T1 sequence (Q9H0K1 whole entry, species assumed): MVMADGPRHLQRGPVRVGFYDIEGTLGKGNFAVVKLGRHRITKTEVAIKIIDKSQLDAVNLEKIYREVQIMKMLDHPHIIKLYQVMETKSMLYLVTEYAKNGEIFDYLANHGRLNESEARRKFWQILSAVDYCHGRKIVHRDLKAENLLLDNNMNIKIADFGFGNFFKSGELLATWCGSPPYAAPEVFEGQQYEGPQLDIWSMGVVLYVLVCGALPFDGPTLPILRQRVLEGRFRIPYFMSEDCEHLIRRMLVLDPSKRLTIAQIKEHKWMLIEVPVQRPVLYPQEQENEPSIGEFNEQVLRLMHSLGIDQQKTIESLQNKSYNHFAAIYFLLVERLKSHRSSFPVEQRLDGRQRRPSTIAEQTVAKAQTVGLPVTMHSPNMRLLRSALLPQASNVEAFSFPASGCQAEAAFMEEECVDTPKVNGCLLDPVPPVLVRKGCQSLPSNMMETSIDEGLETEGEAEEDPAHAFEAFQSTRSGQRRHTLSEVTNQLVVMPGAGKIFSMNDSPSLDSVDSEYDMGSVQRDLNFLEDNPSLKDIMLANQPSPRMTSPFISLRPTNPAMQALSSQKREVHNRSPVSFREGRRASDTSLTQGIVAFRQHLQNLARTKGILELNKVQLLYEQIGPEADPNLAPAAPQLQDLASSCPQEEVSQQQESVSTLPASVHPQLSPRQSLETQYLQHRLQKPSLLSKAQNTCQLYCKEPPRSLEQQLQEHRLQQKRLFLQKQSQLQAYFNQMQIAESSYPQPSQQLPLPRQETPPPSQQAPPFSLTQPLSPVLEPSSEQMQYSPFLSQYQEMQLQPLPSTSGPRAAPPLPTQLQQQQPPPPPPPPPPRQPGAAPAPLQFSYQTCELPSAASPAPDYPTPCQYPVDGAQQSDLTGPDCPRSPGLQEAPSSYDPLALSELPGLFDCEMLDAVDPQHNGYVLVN
SMILES,IC50 (SIK2 [1]) [µM],IC50 (SIK2 [2]) [nM]
"N#Cc1cc(-c2ccn3nc(NC(=O)C4CC4)cc3c2)c(OCC2CNC(=O)C2)cn1 (racemic) [Example 33, rac-N-(5-(2-cyano-5-((5-oxopyrrolidin-3-yl)methoxy)pyridin-4-yl)pyrazolo[1,5-a]pyridin-2-yl)cyclopropanecarboxamide]",0.00416,93.1
"N#Cc1cc(-c2ccn3nc(NC(=O)C4CC4)cc3c2)c(OCC2CCC(O)(C(F)(F)F)CC2)cn1 (racemic) [Example 178, rac-N-[5-[2-cyano-5-[[4-hydroxy-4-(trifluoromethyl)cyclohexyl]methoxy]-4-pyridyl]pyrazolo[1,5-a]pyridin-2-yl]cyclopropanecarboxamide]",0.000605,12.9
"C[C@@](O)(COc1cnc(C#N)cc1-c1ccn2nc(NC(=O)C3CC3)cc2c1)C(F)(F)F (single isomer, unassigned) [Example 49, (*R)—N-(5-(2-Cyano-5-(3,3,3-trifluoro-2-hydroxy-2-methylpropoxy)pyridin-4-yl)pyrazolo[1,5-a]pyridin-2-yl)cyclopropanecarboxamide]",0.000957,25.2
"C[C@](O)(COc1cnc(C#N)cc1-c1ccn2nc(NC(=O)C3CC3)cc2c1)C(F)(F)F (single isomer, unassigned) [Example 50, (*S)—N-(5-(2-Cyano-5-(3,3,3-trifluoro-2-hydroxy-2-methylpropoxy)pyridin-4-yl)pyrazolo[1,5-a]pyridin-2-yl)cyclopropanecarboxamide]",0.00111,21.9
"Cc1cc(-c2ccn3nc(NC(=O)C4CC4)cc3c2)c(O[C@H]2CC[C@@H](O)C2)cn1 (single isomer, unassigned) [Example 179, cis-N-(5-(5-(((1*S,3*R)-3-hydroxycyclopentyl)oxy)-2-methylpyridin-4-yl)pyrazolo[1,5-a]pyridin-2-yl)cyclopropanecarboxamide]",0.00308,52.1
"Cc1cc(-c2ccn3nc(NC(=O)C4CC4)cc3c2)c(O[C@@H]2CNC[C@H](C(F)(F)F)C2)cn1 (single isomer, unassigned) [Example 445, N-[5-[2-methyl-5-[[(3*S,5*R)-5-(trifluoromethyl)-3-piperidyl]oxy]-4-pyridyl]pyrazolo[1,5-a]pyridin-2-yl]cyclopropanecarboxamide]",0.00109,11.6
"C[C@@H](Oc1ccc(C#N)cc1-c1ccn2nc(NC(=O)C3CC3)cc2c1)[C@@H]1CNCCO1 (single isomer, unassigned) [Example 477, (2*R, 1*S)—N-[5-[5-cyano-2-(1-morpholin-2-ylethoxy)phenyl]pyrazolo[1,5-a]pyridin-2-yl]cyclopropanecarboxamide]",0.00442,50.7
"Cc1cc(-c2ccn3nc(Nc4cc(C)nc(C)n4)cc3c2)c(OC[C@H]2CC[C@@H](O)CO2)cn1 (single isomer, unassigned) [Example 582, (3*R, 6*R)-6-[[4-[2-[(2,6-dimethylpyrimidin-4-yl)amino]pyrazolo[1,5-a]pyridin-5-yl]-6-methyl-3-pyridyl]oxymethyl]tetrahydropyran-3-ol]",0.00328,62.2
"CN1CC[C@@H](COc2cnc(C#N)cc2-c2ccn3nc(Nc4cccnc4)cc3c2)C1 [Example 4, (R)-5-((1-methylpyrrolidin-3-yl)methoxy)-4-(2-(pyridin-3-ylamino)pyrazolo[1,5-a]pyridin-5-yl)picolinonitrile]",0.0039,74
"COc1ncccc1-c1ccn2nc(NC(=O)C3CC3)cc2c1 [Example 748, N-[5-(2-methoxy-3-pyridyl)pyrazolo[1,5-a]pyridin-2-yl]cyclopropanecarboxamide]",0.0965,–
"COc1cccnc1-c1ccn2nc(NC(=O)C3CC3)cc2c1 [Example 750, N-[5-(3-methoxy-2-pyridyl)pyrazolo[1,5-a]pyridin-2-yl]cyclopropanecarboxamide]",0.45,–
"COc1ccncc1-c1ccn2nc(NC(=O)C3CC3)cc2c1 [Example 751, N-[5-(4-methoxy-3-pyridyl)pyrazolo[1,5-a]pyridin-2-yl]cyclopropanecarboxamide]",0.198,–

# Next, values leading:
IC50 (SIK2 [1]) [µM],IC50 (SIK2 [2]) [nM],SMILES
0.00044,4.5,"CN1CC[C@H](Oc2cnc(C#N)cc2-c2ccn3nc(NC(=O)C4CC4)cc3c2)C[C@@H]1C(F)(F)F (relative stereo) [Example 30, N-(5-(2-cyano-5-(((2*R,4*S)-1-methyl-2-(trifluoromethyl)piperidin-4-yl)oxy)pyridin-4-yl)pyrazolo[1,5-a]pyridin-2-yl)cyclopropanecarboxamide]"
0.000373,7.51,"N#Cc1cc(-c2ccn3nc(NC(=O)C4CC4)cc3c2)c(O[C@@H]2CCN[C@H](C(F)(F)F)C2)cn1 (single isomer, unassigned) [Example 8, N-(5-(2-cyano-5-(((2*S,4*R)-2-(trifluoromethyl)piperidin-4-yl)oxy)pyridin-4-yl)pyrazolo[1,5-a]pyridin-2-yl)cyclopropanecarboxamide]"
0.000402,4.17,"N#Cc1cc(-c2ccn3nc(NC(=O)C4CC4)cc3c2)c(O[C@@H]2C[C@@H]3C[C@H]2CN3)cn1 (single isomer, unassigned) [Example 17, N-[5-[5-[[(1*S,4*S,5*R)-2-azabicyclo[2.2.1]heptan-5-yl]oxy]-2-cyano-4-pyridyl]pyrazolo[1,5-a]pyridin-2-yl]cyclopropanecarboxamide]"
0.00575,145,"CN1CC[C@@H](Oc2cnc(C#N)cc2-c2ccn3nc(NC(=O)C4CC4)cc3c2)C[C@H]1C(F)(F)F (single isomer, unassigned) [Example 29, N-(5-(2-cyano-5-(((2*S,4*R)-1-methyl-2-(trifluoromethyl)piperidin-4-yl)oxy)pyridin-4-yl)pyrazolo[1,5-a]pyridin-2-yl)cyclopropanecarboxamide]"
0.0036,69.2,"CC(=O)N1CCC(Oc2cnc(C#N)cc2-c2ccn3nc(NC(=O)C4CC4)cc3c2)C1 (single isomer, unassigned) [Example 56, (*R)—N-(5-(5-((1-Acetylpyrrolidin-3-yl)oxy)-2-cyanopyridin-4-yl)pyrazolo[1,5-a]pyridin-2-yl)cyclopropanecarboxamide]"
0.0103,264,"CC(=O)N1CCC(Oc2cnc(C#N)cc2-c2ccn3nc(NC(=O)C4CC4)cc3c2)C1 (single isomer, unassigned) [Example 57, (*S)—N-(5-(5-((1-Acetylpyrrolidin-3-yl)oxy)-2-cyanopyridin-4-yl)pyrazolo[1,5-a]pyridin-2-yl)cyclopropanecarboxamide]"
0.00431,99.9,"CN1CCC(Oc2cnc(C#N)cc2-c2ccn3nc(NC(=O)C4CC4)cc3c2)C1 (single isomer, unassigned) [Example 58, (*R)—N-(5-(2-cyano-5-((1-methylpyrrolidin-3-yl)oxy)pyridin-4-yl)pyrazolo[1,5-a]pyridin-2-yl)cyclopropanecarboxamide]"
0.0047,111,"CN1CCC(Oc2cnc(C#N)cc2-c2ccn3nc(NC(=O)C4CC4)cc3c2)C1 (single isomer, unassigned) [Example 59, (*S)—N-(5-(2-cyano-5-((1-methylpyrrolidin-3-yl)oxy)pyridin-4-yl)pyrazolo[1,5-a]pyridin-2-yl)cyclopropanecarboxamide]"
0.00358,60.9,"Cc1cc(-c2ccn3nc(NC(=O)C4CC4)cc3c2)c(O[C@@H]2CC[C@H](O)C2)cn1 (single isomer, unassigned) [Example 180, cis-N-(5-(5-(((1*R,3*S)-3-hydroxycyclopentyl)oxy)-2-methylpyridin-4-yl)pyrazolo[1,5-a]pyridin-2-yl)cyclopropanecarboxamide]"
0.000791,18,"CN1C[C@@H]2C[C@H]1C[C@H]2Oc1cnc(C#N)cc1-c1ccn2nc(NC(=O)C3CC3)cc2c1 (single isomer, unassigned) [Example 595, (1*S, 4*S, 5*R)—N-[5-[2-cyano-5-[(2-methyl-2-azabicyclo[2.2.1]heptan-5-yl)oxy]-4-pyridyl]pyrazolo[1,5-a]pyridin-2-yl]cyclopropanecarboxamide]"
0.00116,23.4,"N#Cc1cc(-c2ccn3nc(NC(=O)C4CC4)cc3c2)c(OCC2CCNC2)cn1 (stereo in doubt) [Example 45, N-[5-[2-Cyano-5-[[(3R)-pyrrolidin-3-yl]methoxy]-4-pyridyl]pyrazolo[1,5-a]pyridin-2-yl]cyclopropanecarboxamide]"
0.00201,34.9,"Cc1cc(-c2ccn3nc(NC(=O)C4CC4)cc3c2)c(O[C@H]2CC[C@H](O)C2)cn1 (stereo in doubt) [Example 183, trans-N-(5-(5-(((1*S,3*S)-3-hydroxycyclopentyl)oxy)-2-methylpyridin-4-yl)pyrazolo[1,5-a]pyridin-2-yl)cyclopropanecarboxamide]"
0.00226,59.1,"CN1CC[C@@H](COc2cnc(C#N)cc2-c2ccn3nc(NC(=O)C4CC4)cc3c2)C1 [Example 1, N-[5-[2-Cyano-5-[[(3R)-1-methylpyrrolidin-3-yl]methoxy]-4-pyridyl]pyrazolo[1,5-a]pyridin-2-yl]cyclopropanecarboxamide]"
